Test results reported in patent publication US5616615A, “Enaminone esters” (priority 1995, dated 1997).
Read-outs that look alike come from different tables or passages of the source.

Columns and labels:
[1] = tested on: electroshock seizures; assay: MES maximal electroshock test, rats ip; type: in vivo; details: for ED50: Rattus norvegicus, ip
Source text: (§1) Maximal electroshock seizures are elicited with a 60-cycle alternating current of 50 mA intensity (5-7 times that necessary to elicit minimal electroshock seizures) delivered via corneal electrodes for 0.2 seconds. A drop of 0.9% saline is instilled in the eye prior to application of the electrodes in order to […].

[2] = tested on: Maximal electroshock seizures; assay: MES maximal electroshock seizure test, mice ip; type: in vivo; details: Mus musculus, ip; for responders at 100 mg/kg: read-out: MES, animals protected/tested (converted); for responders at 300 mg/kg: read-out: MES, animals protected/tested
Method: Three tests were performed:
1. MES--Electroshock Seizure Test
as §1

[3] = Neurotoxicity, rats ip
Method: (§3) The rotorod test is used to elevate neurotoxicity. The animal is placed on a 1 inch diameter knurled plastic rod rotating at 6 rpm. […] Neurologic toxicity is defined as the failure of the animal to remain on the rod for 1 minute and the results are expressed as the number of animals protected/the number of animals tested.
(§4) The toxicity evaluation for the commercial agents as previously indicated was based on the onset of ataxia.

[4] = in vivo; details: rat, po, 50 mg/kg
Source text: (§2) This oral screen is designated as phase VI.

[5] = tested on: Maximal electroshock seizures; assay: Phase VI oral MES test, rats; type: in vivo; details: Rattus norvegicus, oral, 50 mg/kg, read-out: MES, animals protected/tested (converted)
Source text: as §1, §2

[6] = tested on: Subcutaneous Pentylenetetrazol seizure; assay: sc Met subcutaneous pentylenetetrazol (Metrazol) seizure test, mice; type: in vivo; details: Mus musculus, sc, read-out: scMet, animals protected/tested (converted)
[7] = tested on: seizures; assay: Anticonvulsant evaluation (ASP phase I / overall); type: in vivo, mice; details: Mus musculus, ip; Phase I; read-out: ASP Classification
Method in brief: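 Male Carworth Farms #1 mice; maximal electroshock seizures elicited by 60-cycle AC, 50 mA, 0.2 s via corneal electrodes after a drop of 0.9% saline in the eye. Animals observed for 30 minutes.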

[8] = in vivo; details: rat, ip
Method: as §3, §4

Compound: COC(=O)C1C(=O)C=C(Nc2ccc(Br)cc2)CC1C (centres unmarked) [Compound 113]
- MES, animals protected/tested ([1]; 1.2 mg/kg, 0.25 h): 0/8
- MES, animals protected/tested ([1]; 3.6 mg/kg, 0.25 h): 5/8
- MES, animals protected/tested ([1]; 4.5 mg/kg, 0.25 h): 3/8
- MES, animals protected/tested ([1]; 4.8 mg/kg, 0.25 h): 3/4
- MES, animals protected/tested ([1]; 4.8 mg/kg, 0.50 h): 3/4
- MES, animals protected/tested ([1]; 4.8 mg/kg, 1.00 h): 2/4
- MES, animals protected/tested ([1]; 6.0 mg/kg, 0.25 h): 3/4
- MES, animals protected/tested ([1]; 6.0 mg/kg, 0.50 h): 2/4
- MES, animals protected/tested ([1]; 6.0 mg/kg, 1.00 h): 3/4
- MES, animals protected/tested ([1]; 6.0 mg/kg, 2.00 h): 0/4
- MES, animals protected/tested ([1]; 7.0 mg/kg, 0.25 h): 7/8
- ED50 ([1]; 0.25 h): 4 mg/kg
- responders at 100 mg/kg ([2]; 0.5 h, 30 min): 100%
- responders at 300 mg/kg ([2]; 0.5 h, 30 min): 100%
- responders at 100 mg/kg ([2]; 4 h, 4 h): 100%
- responders at 300 mg/kg ([2]; 4 h, 4 h): 100%
- Tox, animals exhibiting neurotoxicity/tested ([3]; 100 mg/kg, 2.00 h (Table VIII)): 0/8
- Tox, animals exhibiting neurotoxicity/tested ([3]; 180 mg/kg, 2.00 h (Table VII)): 2/4
- Tox, animals exhibiting neurotoxicity/tested ([3]; 180 mg/kg, 2.00 h (Table VIII)): 2/8
- Tox, animals exhibiting neurotoxicity/tested ([3]; 180 mg/kg, 4.00 h): 1/8
- Tox, animals exhibiting neurotoxicity/tested ([3]; 220 mg/kg, 0.25 h): 0/8
- Tox, animals exhibiting neurotoxicity/tested ([3]; 220 mg/kg, 0.50 h): 0/8
- Tox, animals exhibiting neurotoxicity/tested ([3]; 220 mg/kg, 1.00 h): 1/8
- Tox, animals exhibiting neurotoxicity/tested ([3]; 220 mg/kg, 2.00 h): 4/8
- Tox, animals exhibiting neurotoxicity/tested ([3]; 220 mg/kg, 2.00 h (Table VIII)): 4/8
- Tox, animals exhibiting neurotoxicity/tested ([3]; 220 mg/kg, 6.00 h): 0/8
- Tox, animals exhibiting neurotoxicity/tested ([3]; 220 mg/kg, 24.00 h): 0/8
- Tox, animals exhibiting neurotoxicity/tested ([3]; 440 mg/kg, 2.00 h): 6/8
- Tox, animals toxic/tested [4]: 0/4
- responders at 50 mg/kg ([5]; 0.5 h, 0.50 h): 100%
- responders at 50 mg/kg ([5]; 0.25 h): 75%
- responders at 50 mg/kg ([5]; 1.00 h): 100%
- responders at 50 mg/kg ([5]; 2.00 h): 100%
- responders at 50 mg/kg ([5]; 4.00 h): 100%
- responders at 100 mg/kg ([6]; 0.5 h, 30 min): 0%
- responders at 300 mg/kg ([6]; 0.5 h, 30 min): 40%
- responders at 100 mg/kg ([6]; 4 h, 4 h): 0%
- responders at 300 mg/kg ([6]; 4 h, 4 h): 0%
- minimal effective dose [7]: < 100 mg/kg
- TD50 at 2 h [8]: 270 mg/kg
- selectivity ratio [8]: 67.4

Compound: COC(=O)C1C(=O)C=C(Nc2ccc(C(F)(F)F)cc2)CC1C (centres unmarked) [Compound 115]
- MES, animals protected/tested ([1]; 1.0 mg/kg, 0.50 h): 0/8
- MES, animals protected/tested ([1]; 2.0 mg/kg, 0.50 h (Table VII)): 1/4
- MES, animals protected/tested ([1]; 2.0 mg/kg, 0.50 h (Table VIII)): 3/8
- MES, animals protected/tested ([1]; 2.0 mg/kg, 1.00 h): 1/4
- MES, animals protected/tested ([1]; 3.0 mg/kg, 0.50 h): 3/8
- MES, animals protected/tested ([1]; 3.5 mg/kg, 0.50 h): 4/8
- MES, animals protected/tested ([1]; 4.0 mg/kg, 0.25 h): 2/4
- MES, animals protected/tested ([1]; 4.0 mg/kg, 0.50 h (Table VII)): 3/4
- MES, animals protected/tested ([1]; 4.0 mg/kg, 0.50 h (Table VIII)): 7/8
- MES, animals protected/tested ([1]; 4.0 mg/kg, 1.00 h): 3/4
- MES, animals protected/tested ([1]; 4.0 mg/kg, 2.00 h): 2/4
- ED50 ([1]; 0.5 h, 0.50 h): 2.95 mg/kg
- responders at 100 mg/kg ([2]; 0.5 h, 30 min): 100%
- responders at 300 mg/kg ([2]; 0.5 h, 30 min): 100%
- responders at 100 mg/kg ([2]; 4 h, 4 h): 33.3%
- responders at 300 mg/kg ([2]; 4 h, 4 h): 100%
- Tox, animals exhibiting neurotoxicity/tested ([3]; 8 mg/kg, 0.25-24 h): 0/2
- Tox, animals exhibiting neurotoxicity/tested ([3]; 16 mg/kg, 0.25-24 h): 0/2
- Tox, animals exhibiting neurotoxicity/tested ([3]; 32 mg/kg, 0.25-24 h): 0/2
- Tox, animals exhibiting neurotoxicity/tested ([3]; 64 mg/kg, 0.25-24 h): 0.2
- Tox, animals toxic/tested [4]: 0/4
- responders at 50 mg/kg ([5]; 0.5 h, 0.50 h): 100%
- responders at 50 mg/kg ([5]; 0.25 h): 75%
- responders at 50 mg/kg ([5]; 1.00 h): 100%
- responders at 50 mg/kg ([5]; 2.00 h): 100%
- responders at 50 mg/kg ([5]; 4.00 h): 100%
- responders at 100 mg/kg ([6]; 0.5 h, 30 min): 0%
- responders at 300 mg/kg ([6]; 0.5 h, 30 min): 40%
- responders at 100 mg/kg ([6]; 4 h, 4 h): 0%
- responders at 300 mg/kg ([6]; 4 h, 4 h): 0%
- minimal effective dose [7]: < 100 mg/kg
- TD50 [8]: > 64 mg/kg
- selectivity ratio [8]: > 21.7
